Laboratory results taken from US20260285850A1, “SUBSTITUTED OXAZOLIDINONES AND IMIDAZOLINONES AS HERBICIDES” (FMC CORPORATION, priority 2023, published 2026).

How the values were obtained:
Assay type in all cases: in vivo
[1] = system: barnyardgrass (Echinochloa crus-galli); assay: Test A preemergence soil spray, visual injury rating 0-100; details: 10 days
Summary of the method: (§1)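 Scale 0–100 (no effect to complete control), visual, versus untreated controls, read 10 days after application. Application: preemergence directed spray onto seeded loam–sand soil, or postemergence to young plants; formulation in non-phytotoxic solvent with surfactant.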

[2] = system: oat, wild (wild oat, Avena fatua); assay: as above; details: 10 days
Summary of the method: as §1

[3] = system: green foxtail (Setaria viridis); assay: as above; details: 10 days
Summary of the method: as §1

corn (Zea mays) [4] = assay: as above; details: 10 days
Summary of the method: as §1

kochia (Bassia scoparia) [5] = assay: as above; details: 10 days
Summary of the method: as §1

[6] = system: ryegrass, Italian (italian ryegrass, Lolium multiflorum); assay: as above; details: 10 days
Summary of the method: as §1

soybean (Glycine max) [7] = assay: as above; details: 10 days
Summary of the method: as §1

[8] = system: blackgrass (Alopecurus myosuroides); assay: as above; details: 10 days
Summary of the method: as §1

[9] = system: ragweed (common ragweed, Ambrosia artemisiifolia); assay: as above; details: 10 days
Summary of the method: as §1

[10] = system: palmer (palmer amaranth, palmer pigweed, Amaranthus palmeri); assay: as above; details: 10 days
Summary of the method: as §1

[11] = system: wheat (Triticum aestivum); assay: as above; details: 10 days
Summary of the method: as §1

[12] = system: barnyardgrass (Echinochloa crus-galli); assay: Test A postemergence application, visual injury rating 0-100
Summary of the method: as §1

[13] = system: oat, wild (wild oat, Avena fatua); assay: as above
Summary of the method: as §1

[14] = system: galium (catchweed bedstraw, Galium aparine); assay: as above
Summary of the method: as §1

[15] = system: green foxtail (Setaria viridis); assay: as above
Summary of the method: as §1

corn (Zea mays) [16] = assay: as above
Summary of the method: as §1

kochia (Bassia scoparia) [17] = assay: as above
Summary of the method: as §1

[18] = system: ryegrass, Italian (italian ryegrass, Lolium multiflorum); assay: as above
Summary of the method: as §1

soybean (Glycine max) [19] = assay: as above
Summary of the method: as §1

[20] = system: blackgrass (Alopecurus myosuroides); assay: as above
Summary of the method: as §1

[21] = system: ragweed (common ragweed, Ambrosia artemisiifolia); assay: as above
Summary of the method: as §1

[22] = system: horseweed (Erigeron canadensis); assay: as above
Summary of the method: as §1

[23] = system: palmer (palmer amaranth, palmer pigweed, Amaranthus palmeri); assay: as above
Summary of the method: as §1

[24] = system: wheat (Triticum aestivum); assay: as above
Summary of the method: as §1

[25] = system: ducksalad (Heteranthera limosa); assay: Test B flooded paddy test, visual plant response rating 0-100; details: 250 g ai/ha, Flood, applied to paddy water, evaluated after 13 days
Summary of the method: (§2)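 Paddy-water application: test compounds went directly into water flooded 3 cm above the soil surface, with plants at 2 leaves. After a 13-day greenhouse period, responses were judged by eye relative to controls; a dash marks an untested entry.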

rice (Oryza sativa) = assay: as above; details: 250 g ai/ha, Flood, applied to paddy water, evaluated after 13 days
Summary of the method: as §2

[26] = system: barnyardgrass (Echinochloa crusgalli); assay: as above; details: 250 g ai/ha, Flood, applied to paddy water, evaluated after 13 days
Summary of the method: as §2

[27] = system: sedge, umbrella (small-flower umbrella sedge, Cyperus difformis); assay: as above; details: 250 g ai/ha, Flood, applied to paddy water, evaluated after 13 days
Summary of the method: as §2

[28] = 62 g ai/ha, 0 = no effect, 100 = complete control
[29] = 62 g ai/ha, postemergence, 10 days, 0 = no effect, 100 = complete control
[30] = Postemergence, 16 g ai/ha, greenhouse 10 days, 0 no effect, 100 complete control

CC(C)COC(=O)C1=CCC(NC(=O)C2(C)CN(c3cc(F)cc(Cl)c3)C(=O)O2)C1 (stereo not shown) [Compound 143]
Barnyardgrass plant response rating ([1]; 16 g ai/ha, 0 to 100 scale): 0
Barnyardgrass plant response rating (0-100) [1, 28]: 0
Oat, Wild plant response rating ([2]; 16 g ai/ha, 0 to 100 scale): 0
Oat, Wild plant response rating (0-100) [2, 28]: 0
Foxtail, Green plant response rating ([3]; 16 g ai/ha, 0 to 100 scale): 0
Foxtail, Green plant response rating (0-100) [3, 28]: 0
Corn plant response rating (corn (Zea mays) [4]; 16 g ai/ha, 0 to 100 scale): 0
Corn plant response rating (0-100) (corn (Zea mays) [4]; [28]): 0
Kochia plant response rating (kochia (Bassia scoparia) [5]; 16 g ai/ha, 0 to 100 scale): 0
Kochia plant response rating (0-100) (kochia (Bassia scoparia) [5]; [28]): 0
Ryegrass, Italian plant response rating ([6]; 16 g ai/ha, 0 to 100 scale): 0
Ryegrass, Italian plant response rating (0-100) [6, 28]: 0
Soybean plant response rating (soybean (Glycine max) [7]; 16 g ai/ha, 0 to 100 scale): 0
Soybean plant response rating (0-100) (soybean (Glycine max) [7]; [28]): 0
Blackgrass plant response rating ([8]; 16 g ai/ha, 0 to 100 scale): 0
Blackgrass plant response rating (0-100) [8, 28]: 0
Ragweed plant response rating ([9]; 16 g ai/ha, 0 to 100 scale): 0
Ragweed plant response rating (0-100) [9, 28]: 0
Pigweed, Palmer plant response rating ([10]; 16 g ai/ha, 0 to 100 scale): 0
Pigweed, Palmer plant response rating (0-100) [10, 28]: 0
Wheat plant response rating ([11]; 16 g ai/ha, 0 to 100 scale): 0
Wheat plant response rating (0-100) [11, 28]: 0
Barnyardgrass plant response rating (0-100) [12, 29]: 0
Barnyardgrass plant response rating (0 to 100 scale) [12, 30]: 0
Oat, Wild plant response rating (0-100) [13, 29]: 0
Oat, Wild plant response rating (0 to 100 scale) [13, 30]: 0
Galium plant response rating (0-100) [14, 29]: 0
Galium plant response rating (0 to 100 scale) [14, 30]: 0
Foxtail, Green plant response rating (0-100) [15, 29]: 0
Foxtail, Green plant response rating (0 to 100 scale) [15, 30]: 0
Corn plant response rating (0-100) (corn (Zea mays) [16]; [29]): 0
Corn plant response rating (0 to 100 scale) (corn (Zea mays) [16]; [30]): 0
Kochia plant response rating (0-100) (kochia (Bassia scoparia) [17]; [29]): 0
Kochia plant response rating (0 to 100 scale) (kochia (Bassia scoparia) [17]; [30]): 0
Ryegrass, Italian plant response rating (0-100) [18, 29]: 0
Ryegrass, Italian plant response rating (0 to 100 scale) [18, 30]: 0
Soybean plant response rating (0-100) (soybean (Glycine max) [19]; [29]): 0
Soybean plant response rating (0 to 100 scale) (soybean (Glycine max) [19]; [30]): 0
Blackgrass plant response rating (0-100) [20, 29]: 0
Blackgrass plant response rating (0 to 100 scale) [20, 30]: 0
Ragweed plant response rating (0-100) [21, 29]: 0
Ragweed plant response rating (0 to 100 scale) [21, 30]: 0
Horseweed plant response rating (0-100) [22, 29]: 0
Horseweed plant response rating (0 to 100 scale) [22, 30]: 0
Pigweed, Palmer plant response rating (0-100) [23, 29]: 0
Pigweed, Palmer plant response rating (0 to 100 scale) [23, 30]: 0
Wheat plant response rating (0-100) [24, 29]: 0
Wheat plant response rating (0 to 100 scale) [24, 30]: 0
Plant response rating, Ducksalad (0 to 100 scale, 0 is no effect and 100 is complete control) [25]: 60
Plant response rating, Rice (0 to 100 scale, 0 is no effect and 100 is complete control) (rice (Oryza sativa)): 10
Plant response rating, Barnyardgrass (0 to 100 scale, 0 is no effect and 100 is complete control) [26]: 40
Plant response rating, Sedge, Umbrella (0 to 100 scale, 0 is no effect and 100 is complete control) [27]: 45
